Patent US9981940B2, “Aryl sulfide derivatives and aryl sulfoxide derivatives as acaricides and insecticides” (BAYER CROPSCIENCE AKTIENGESELLSCHAFT, priority 2013, dated 2018)

Experiments:
[1] = log P by HPLC (OECD Guideline 117), method [a] acidic range; type: physicochemical; conditions: for logP[a]: HPLC, method [a] acidic range
Method: (§1) The log P values were determined analogously to OECD Guideline 117 (EC Directive 92/69/EEC) by HPLC (high-performance liquid chromatography) using reversed-phase columns (C 18), by the following methods:
[a] The LC-MS determination in the acidic range is effected at pH 2.7 with 0.1% aqueous formic acid and acetonitrile (contains 0.1% formic acid) as eluents; linear gradient from 10% acetonitrile to 95% acetonitrile.

[2] = log P by HPLC (OECD Guideline 117), method [b] neutral range; type: physicochemical; conditions: HPLC; for logP[b]: method [b] neutral range; for chromatographic logP: reversed-phase C18 HPLC column, neutral range, pH 7.8
Method: as §1
[b] The LC-MS determination in the neutral range is effected at pH 7.8 with 0.001 molar aqueous ammonium hydrogencarbonate solution and acetonitrile as eluents; linear gradient from 10% acetonitrile to 95% acetonitrile.

[3] = reversed-phase C18 HPLC column, pH 2.7, HPLC, acidic range, pH 2.7, read-out: log P[a]
[4] = reversed-phase C18 HPLC column, pH 2.7, HPLC method [a], acidic range, read-out: logP[a]

SMILES	logP[a] [1]	logP[b] [2]	chromatographic logP [1, 3]	other results
Cc1cc(F)c(-n2nnn(-c3ccc(C(F)(F)F)cc3)c2=O)cc1[S+]([O-])CC(F)(F)F (racemic) [Example 445]	3.75	3.72		
O=c1n(-c2cc(SCC(F)(F)F)c(Cl)cc2F)nc(OCC(F)(F)F)n1C1CC1 [Example 186]	3.96	3.89		
CC=Cc1nn(-c2cc(SCC(F)(F)F)c(C)cc2F)c(=O)n1C1CC1 [Example 81]	3.55	3.49		
COc1nn(-c2cc([S+]([O-])CC(F)(F)F)c(Br)cc2F)c(=O)n1C (centres unmarked) [Example 174]	2.21	2.15		
COC(=O)c1nn(-c2cc(SSc3cc(-n4nc(C(=O)OC)n(C(C)C)c4=O)c(F)cc3C)c(C)cc2F)c(=O)n1C(C)C [XXVIII-1, Dimethyl 1,1′-[disulphanediylbis(6-fluoro-4-methylbenzene-3,1-diyl)]bis(4-isopropyl-5-oxo-4,5-dihydro-1H-1,2,4-triazole-3-carboxylate)]			4.11	
Cc1cc(F)c(NC(=S)NCC(F)(F)F)cc1[S+]([O-])CC(F)(F)F (centres unmarked) [IIb-1, 1-{2-Fluoro-4-methyl-5-[(2,2,2-trifluoroethyl)sulphinyl]phenyl}-3-(2,2,2-trifluoroethyl)thiourea]			2.34	chromatographic logP [2]: 2.3
Cc1cc(F)c(-n2nc(OC3CCOC3)n(C)c2=O)cc1[S+]([O-])CC(F)(F)F (centres unmarked) [Example 161]	1.89	1.84		
Cc1cc(F)c(-n2nc(C(=O)O)n(C(C)C)c2=O)cc1SCC(F)(F)F [1-{2-Fluoro-4-methyl-5-[(2,2,2-trifluoroethyl)sulphanyl]phenyl}-4-isopropyl-5-oxo-4,5-dihydro-1H-1,2,4-triazole-3-carboxylic acid]			2.16	
Cc1ccc(-n2nc(OC3CCOC3)n(C)c2=O)cc1SCC(F)(F)F (centres unmarked) [Example 156]	3.27	3.27		
CC(C)n1c(Br)n[nH]c1=O [5-Bromo-4-isopropyl-2,4-dihydro-3H-1,2,4-triazol-3-one]			0.86	chromatographic logP [2]: 0.83
N#Cc1cc(F)c(Br)cc1SCC(F)(F)F [VIIa-18, 4-Bromo-5-fluoro-2-[(2,2,2-trifluoroethyl)sulphanyl]benzonitrile]			3.32	chromatographic logP [2]: 3.26
COc1ccc(-n2nc(C(F)(F)F)n(C3CC3)c2=O)cc1[S+]([O-])CC(F)(F)F (centres unmarked) [Example 53]	3.03	2.93		
Cc1cc(C)c([S+]([O-])CC(F)(F)F)cc1-n1nnn(C)c1=O (racemic) [Example 297]	1.96	1.96		
Cc1cc(F)c(-n2nn[nH]c2=O)cc1SCC(F)(F)F [Example 299, 1-{2-Fluoro-4-methyl-5-[(2,2,2-trifluoroethyl)sulphanyl]phenyl}-1,4-dihydro-5H-tetrazol-5-one]			2.45	chromatographic logP [1, 4]: 2.45; chromatographic logP [2]: 0.9
Cc1cc(F)c(-n2nc(Br)n(Cc3ccccc3)c2=O)cc1[S+]([O-])CC(F)(F)F (centres unmarked) [Example 443]	3.08	3.00		
Cc1cc(C)c(-n2ncn(Cc3ccccc3)c2=O)cc1SCC(F)(F)F [Example 373]	3.55	3.47		

SMILES	logP[a] [1]	logP[b] [2]	chromatographic logP [1, 3]	other results
CCCOC1=CC(=O)N(c2cc([S+]([O-])CC(F)(F)F)c(C)cc2F)C1 (centres unmarked) [Example 333]	2.57	2.52		
COC1=CC(=O)N(c2cc(SCC(F)(F)F)c(C)cc2Cl)C1 [Example 319]	3.02	2.98		
COc1nn(-c2ccc(C(F)(F)F)c([S+]([O-])CC(F)(F)F)c2)c(=O)n1C (centres unmarked) [Example 96, 5-Methoxy-4-methyl-2-{3-[(2,2,2-trifluoroethyl)sulphinyl]-4-(trifluoromethyl)phenyl}-2,4-dihydro-3H-1,2,4-triazol-3-one]			2.89	chromatographic logP [1, 4]: 2.89; chromatographic logP [2]: 2.83
C=CCSc1nn(-c2cc([S+]([O-])CC(F)(F)F)c(C)cc2F)c(=O)n1CC=C (centres unmarked) [Example 432]	2.94	3.05		
N#Cc1cc(F)c(-n2nc(C(F)(F)F)n(C3CC3)c2=O)cc1[S+]([O-])CC(F)(F)F (centres unmarked) [Example 47, 4-[4-Cyclopropyl-5-oxo-3-(trifluoromethyl)-4,5-dihydro-1H-1,2,4-triazol-1-yl]-5-fluoro-2-[(2,2,2-trifluoroethyl)sulphinyl]benzonitrile]			2.92	chromatographic logP [1, 4]: 2.92; chromatographic logP [2]: 2.84
N#Cc1cc(F)c(-n2nc(C(F)(F)F)oc2=O)cc1SCC(F)(F)F [Example 308]	3.47	3.40		
Cc1ccc(-n2nc(OCC(C)C)n(C)c2=O)cc1[S+]([O-])CC(F)(F)F (centres unmarked) [Example 167]	3.31	3.26		
N#Cc1cc(F)c(-n2nc(C(F)(F)F)n(C3CC3)c2=O)cc1F [XXIV-1, 4-[4-Cyclopropyl-5-oxo-3-(trifluoromethyl)-4,5-dihydro-1H-1,2,4-triazol-1-yl]-2,5-difluorobenzonitrile]				log P[a] ([1]; pH 2.7): 2.90; chromatographic logP ([1]; pH 2.7, log P[a]): 2.91
Cc1ccc(SSc2cc(Br)ccc2C)cc1Br [4-Bromo-2-[(3-bromo-4-methylphenyl)disulphanyl]-1-methylbenzene]			> 7.36	chromatographic logP [2]: > 7.36
N#Cc1cc(F)c(-n2nc(C(F)(F)F)oc2=O)cc1[S+]([O-])CC(F)(F)F (racemic) [Example 309]	2.86	2.80		
CCn1c(OC)nn(-c2cc([S+]([O-])CC(F)(F)F)c(C)cc2F)c1=O (centres unmarked) [Example 181]	2.11	2.07		
Nc1cc(SCC(F)(F)F)c(Br)cc1F [IVa-14, 4-Bromo-2-fluoro-5-[(2,2,2-trifluoroethyl)sulphanyl]aniline]			3.15	chromatographic logP [2]: 3.12
COc1nn(-c2ccc(Br)c(SCC(F)(F)F)c2)c(=O)n1C [Example 168]	3.60	3.54		
CCOc1nn(-c2ccc(C)c(SCC(F)(F)F)c2)c(=O)n1OC [Example 227]	3.76	3.70		
Cc1ccc(-n2nc(OC(C)C)n(C)c2=O)cc1[S+]([O-])CC(F)(F)F (centres unmarked) [Example 163]	2.87	2.80		
CCCSc1nn(-c2cc(SCC(F)(F)F)c(C)cc2F)c(=O)n1CC [Example 426]	4.37	4.29		
